Reference: patent US7671077B2, “Neuroprotective small organic molecules, compositions and uses related thereto” (priority 2004, dated 2010)
Blank lines part the entries; values can stand above or below the molecule they belong to.

System: midbrain dopaminergic neurons
Test: Dopamine (DA) uptake assay in primary midbrain cultures
Format: cell-based, rat
Details: for activity at 0.6 µM: compound concentration 0.6 μM; for activity at 5 µM: compound concentration 5 μM; for activity at 1.25 µM: compound concentration 1.25 μM; for activity at 40 µM: compound concentration 40 μM; for activity at 10 µM: compound concentration 10 μM
Experimental: Primary midbrain cultures were prepared from rat embryo ventral mesencephalon as described previously by Lin et al (1994). In brief, rostral mesencephalic tegmentum of embryonic day 16 rat embryos was collected in DMEM/F12 (Hyclone SH30023.01) containing 2 mM glutamine on ice, The tissue was treated with 0.1% trypsin in Hanks' balanced salt solution (HBSS, Gibco 14175-095) for 15 min at 37° C. and dissociated mechanically by mild trituration with a fire-polished glass pipet in growth medium plus 2% heat-inactivated fetal bovine serum (FBS). The growth medium consisted of equal volumes of Dulbecco's minimal essential medium DMEM (Gibco 12100-046) and HAM's F12 nutrient mixture (Gibco 21700-075) supplemented with 33 mM glucose, 13 mM sodium bicarbonate, 5 mM HEPES, 2 mM glutamine, 25 μg/ml insulin, 100 μg/ml transferrin, 60 μM putrescine, 20 nM progesterone, 30 nM sodium selenite, 5 U/ml penicillin G and 5 μg/ml streptomycin. 24-well tissue culture plate was coated by adding 15 μg/ml poly-1-ornithine hydrobromide solution at 0.5 ml/well, incubated at room temperature for 1 hr. The coating solution was removed and the well washed 3 times with distilled water and one wash with HBSS. The dissociated cells were plated onto polyornithine-coated wells at 250,000-350,000 trypan blue-excluding viable cells per well in 500 μl of above medium containing 1% FBS. After 3 h when most of the cells had adhered to the bottom of the well, the medium was replaced with 500 μl of fresh medium without FBS. A serial dilution of the sample to be assayed for trophic activity was added to each well in duplicate at the time of medium change or within 24 h thereafter. Unless otherwise stated, cultures were incubated at 37° C. without any further medium change up to 7 days. Primary hindbrain cultures were prepared as described for the midbrain cultures except that the rostral raphe region (instead of the rostral mesencephalon) was dissected and trypsinized for 20 (instead of 15) min.
[^3H]DA uptake was measured in cultures at day 7, and all the solutions were maintained at 37° C. The growth medium was removed, and the cultures were rinsed twice with 0.25 ml of uptake buffer, which consists of HBSS (Gibco 11201-092) supplemented with 28 mM glucose, 15 mM HEPES, 1 mM ascorbic acid (an antioxidant), and […] pargyline (a monoamine oxidase inhibitor). The cultures were then incubated with 0.25 ml of fresh uptake buffer containing 50 nM [^3H]DA (NEN/DuPont) for 20 min at 37° C. [^3H]DA uptake was stopped by removing the incubation mixture, and cells were then washed twice with 0.5 ml of the uptake buffer at room temperature. To release [^3H]DA from the cells, the cultures were lysed with 0.2 ml of 0.1 N NaOH for 1 h at room temperature, the lysate was then added to 1 ml of Microscint-20 (Packard 6013621), and counted for radioactivity in a microplate scintillation counter (Packard TopCount, NXT). Background values were obtained by adding to the uptake buffer 0.5 mM GBR-12909, a specific inhibitor of the high-affinity uptake pump of the dopaminergic neurons, and were usually <5% of the ^3H uptake in untreated control cultures. Forskolin (Fk, 25 μM) was employed as a positive control.

[1] = Rattus norvegicus, Neuron, compound concentration 2.5 μM, midbrain culture, read-out: DA uptake % of control
[2] = Rattus norvegicus, Neuron, midbrain culture, read-out: DA uptake % of control

SMILES: O=C(/C=C/c1cccc(Br)c1)Nc1ccc(S(=O)(=O)Nc2nccs2)cc1 [M′′′′]
- activity at 2.5 µM [1]: 190%

SMILES: O=C(/C=C/c1ccccc1Cl)Nc1ccc(S(=O)(=O)N2CCOCC2)cc1 [I′]
- activity at 2.5 µM [1]: 150%

SMILES: CC(C)(C)c1cc(Br)ccc1OCC(=O)Nc1ccc(S(=O)(=O)Nc2nccs2)cc1 [U′]
- activity at 0.6 µM [2]: 140%

SMILES: COc1ccccc1/C=C/C(=O)Nc1ccc(S(=O)(=O)Nc2nccs2)cc1 [K′′′]
- activity at 2.5 µM [1]: 170%

SMILES: O=C(/C=C/c1ccccc1Cl)Nc1ccc(S(=O)(=O)N2CCCCC2)cc1 [M′]
- activity at 0.6 µM [2]: 145%

SMILES: Cc1noc(NS(=O)(=O)c2ccc(NC(=O)/C=C/c3ccc(Cl)cc3)cc2)c1C [J′]
- activity at 5 µM [2]: 180%

SMILES: O=C(Nc1ccc(S(=O)(=O)Nc2nccs2)cc1)c1ccc(Br)cc1 [P]
- activity at 5 µM [2]: 160%

SMILES: O=C(/C=C/c1ccccc1)Nc1ccc(S(=O)(=O)Nc2ccccn2)cc1 [G′′′]
- activity at 20 µM (Rattus norvegicus, Neuron, compound concentration 20 μM, midbrain culture, read-out: DA uptake % of control): 180%

SMILES: O=C(/C=C/c1cc2c(cc1Br)OCO2)Nc1ccc(S(=O)(=O)Nc2nccs2)cc1 [W″]
- activity at 1.25 µM [2]: 330%

SMILES: COc1ccc(/C=C/C(=O)Nc2ccc(S(=O)(=O)Nc3cc(C)nc(C)n3)cc2)cc1OC [Y]
- activity at 40 µM [2]: 160%

SMILES: COc1cccc(/C=C/C(=O)Nc2ccc(S(=O)(=O)Nc3nnc[nH]3)cc2)c1 [R′′′]
- activity at 1.25 µM [2]: 150%

SMILES: O=C(/C=C/c1c(Cl)cccc1Cl)Nc1ccc(S(=O)(=O)Nc2nccs2)cc1 [U′′′′]
- activity at 1.25 µM [2]: 290%

SMILES: O=C(/C=C/c1ccccc1Br)Nc1ccc(S(=O)(=O)Nc2nccs2)cc1 [J′′′′]
- DA uptake % of control (compound concentration 2.5 μM, midbrain culture): 210%

SMILES: O=C(/C=C/c1ccccc1F)Nc1ccc(S(=O)(=O)Nc2nccs2)cc1 [A′′′′]
- activity at 2.5 µM [1]: 170%

- EC50 (Rattus norvegicus, Neuron, midbrain culture, FIG. 36, read-out: half-maximal effective concentration (EC50) for DA uptake stimulation): ~200 nM
SMILES: Cc1ccc(/C=C/C(=O)Nc2ccc(S(=O)(=O)Nc3cccs3)cc2)c(C)c1 [Compound Z′]
- stimulation maximum of DA uptake compared to compound A (FIG. 36): higher stimulation maximum
- activity at 1.25 µM [2]: 365%

SMILES: O=C(/C=C/c1ccccc1)Nc1ccc(S(=O)(=O)N2CCCCC2)cc1 [K′]
- activity at 0.6 µM [2]: 125%
- activity at 2.5 µM [1]: 320%

SMILES: CCCCCCCC(=O)Nc1ccc(S(=O)(=O)Nc2nccs2)cc1 [W′]
- activity at 10 µM [2]: 200%

SMILES: COc1ccc(/C=C/C(=O)Nc2ccc(S(=O)(=O)Nc3cc(C)nc(C)n3)cc2)cc1Br [Q]
- activity at 2.5 µM [1]: 140%

SMILES: O=C(Nc1ccc(S(=O)(=O)Nc2nccs2)cc1)c1cncc(Br)c1 [V′]
- activity at 40 µM [2]: 130%

SMILES: O=C(/C=C/c1cccc(C(F)(F)F)c1Cl)Nc1ccc(S(=O)(=O)Nc2nccs2)cc1 [C′′′]
- activity at 0.6 µM [2]: 180%

SMILES: O=C(/C=C/c1cccc([N+](=O)[O-])c1)Nc1ccc(S(=O)(=O)Nc2nccs2)cc1 [E′]
- activity at 1.2 µM (Rattus norvegicus, Neuron, compound concentration 1.2 μM, midbrain culture, read-out: DA uptake % of control): 210%

SMILES: COc1ccccc1/C=C/C(=O)Nc1ccc(S(=O)(=O)NC(=N)/C=C(\C)O)cc1 [W′′′]
- activity at 2.5 µM [1]: 140%

SMILES: Cc1cccc(/C=C/C(=O)Nc2ccc(S(=O)(=O)Nc3ccccn3)cc2)c1 [B′′′′]
- activity at 5 µM [2]: 240%

SMILES: COc1ccc(/C=C/C(=O)Nc2ccc(S(=O)(=O)Nc3nccs3)cc2)c(Cl)c1OC [I″]
- activity at 1.25 µM [2]: 245%

SMILES: O=C(Nc1ccc(S(=O)(=O)Nc2cccs2)cc1)c1ccc2ccccc2c1 [C″]
- activity at 2.5 µM [1]: 200%

SMILES: Cc1cccc(/C=C/C(=O)Nc2ccc(S(=O)(=O)Nc3nc[nH]n3)cc2)c1 [E″]
- activity at 1.25 µM [2]: 290%

SMILES: O=C(/C=C/c1c(Cl)cccc1Cl)Nc1ccc(S(=O)(=O)Nc2nc[nH]n2)cc1 [H″]
- activity at 1.25 µM [2]: 260%

SMILES: COc1cccc(C(=O)Nc2ccc(S(=O)(=O)Nc3nccs3)cc2)c1 [F′′′]
- activity at 10 µM [2]: 140%

SMILES: O=C(/C=C/c1cccc(O)c1)Nc1ccc(S(=O)(=O)Nc2ccccn2)cc1 [M′′′]
- activity at 5 µM [2]: 170%

SMILES: O=C(/C=C/c1ccc(F)cc1C(F)(F)F)Nc1ccc(S(=O)(=O)Nc2nc[nH]n2)cc1 [Q″]
- activity at 2.5 µM [1]: 270%

SMILES: O=C(Nc1ccc(S(=O)(=O)Nc2nccs2)cc1)c1cc2ccccc2s1 [N′′′′]
- activity at 2.5 µM [1]: 170%
